Biological target: T1, PKCε (Rattus norvegicus, UniProt P09216)
T1 construct: endogenous in cells; host or cells: primary cultured cerebral cortex cells from 18-day Wistar/ST rat fetuses
T1 sequence (P09216 1-737): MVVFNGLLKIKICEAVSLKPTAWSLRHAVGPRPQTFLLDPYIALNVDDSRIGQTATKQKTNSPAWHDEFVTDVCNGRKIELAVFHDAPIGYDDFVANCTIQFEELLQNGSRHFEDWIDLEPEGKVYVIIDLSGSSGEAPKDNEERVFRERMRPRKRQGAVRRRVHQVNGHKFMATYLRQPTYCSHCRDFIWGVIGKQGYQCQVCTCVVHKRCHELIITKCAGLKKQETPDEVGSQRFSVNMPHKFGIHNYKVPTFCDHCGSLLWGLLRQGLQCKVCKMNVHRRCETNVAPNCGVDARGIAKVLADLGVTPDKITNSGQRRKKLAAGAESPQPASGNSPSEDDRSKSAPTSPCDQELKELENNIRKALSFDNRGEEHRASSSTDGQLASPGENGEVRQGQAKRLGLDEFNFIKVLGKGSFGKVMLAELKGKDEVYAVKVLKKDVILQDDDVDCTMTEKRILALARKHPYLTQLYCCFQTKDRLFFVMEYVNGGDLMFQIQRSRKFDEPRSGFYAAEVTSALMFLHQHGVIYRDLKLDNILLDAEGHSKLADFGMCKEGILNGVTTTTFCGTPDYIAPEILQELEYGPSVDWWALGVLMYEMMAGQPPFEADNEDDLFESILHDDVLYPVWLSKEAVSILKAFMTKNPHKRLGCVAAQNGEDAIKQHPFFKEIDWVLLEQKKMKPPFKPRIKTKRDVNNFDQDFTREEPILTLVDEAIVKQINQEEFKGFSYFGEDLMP
Test: PKC activity enhancing effect in cultured cells (PKCε migration from cytosol to membrane fraction, western blotting)
Type: cell-based
Details: cultured cerebral cortex cells of Wistar/ST rat fetuses, 0.1 μmol/L in terms of T-817
Procedure: The PKC activity was determined, according to the method of Etcheberrigaray et al. (Proceedings of the National Academy of Sciences of the United States of America, 2004, Vol. 101, No. 30, p. 11141-11146), as applicable. At the time of activation, PKC migrates from the cytoplasm to membranes. The PKC level in the membrane fraction over that in the cytosol fraction was taken as the index of PKC activation. In this experiment, the activity of PKCε, a known isoform of PKC, was measured.
Cultured cells were prepared following the method of Hirata et al. (J. Pharmacol. Exp. Ther., 2005, Vol. 314, No. 1, p. 252-259). […]
On Day 8 from the start of the culturing, T-817MA was added to the cells to a final concentration of 0.1 μmol/L, in terms of T-817. […] The protein concentration in the cytosol fraction and the membrane fraction was measured, and the protein content in each sample was adjusted to a certain constant level with the extraction buffer or the extraction buffer containing Triton X-100. […] Then, after washing with PBST, the membrane was treated with ECL plus reagent (manufactured by GE Healthcare Bio-Sciences) and the luminescence was detected by a Lumino Image Analyzer. […]

## OC1CN(CCCOCCc2ccc3sccc3c2)C1 [T-817MA, 1-(3-(2-(1-benzothiophen-5-yl)ethoxy)propyl)azetidin-3-ol]
2 hours after treatment
  PKCε migration from the cytoplasm to membranes (index of PKC activation): migrated from the cytoplasm to membranes
4 hours after treatment
  PKCε migration from the cytoplasm to membranes (index of PKC activation): migrated from the cytoplasm to membranes

Source: patent US20110245228A1, “PROTEIN KINASE C ACTIVITY ENHANCER CONTAINING ALKYL ETHER DERIVATIVE OR SALT THEREOF” (Toyama Chemical Co., Ltd., priority 2006, published 2011)
